# Source: patent US20040116405A1, “Use of bicyclic esters or amides for the treatment of diseases responsive to enhanced potassium channel activity” (priority 2001, published 2004)
# Molecular target: T1, hIK channels (Homo sapiens, UniProt O15554)
# T1 construct: The full length hSK-1, 2, 3 and IK clones were obtained; expressed in transfected cells
# Test: Whole cell patch clamp electrophysiology, hIK channels expressed in CHO-K1 cells (FIG. 1)
# Type: cell-based
# Experimental: FIG. 1 illustrates the activation of hIK channels expressed in CHO—K1 cells by a compound of formula (V): [drawing 3]
# The full length hSK-1, 2, 3 and IK clones were obtained either by PCR and 5′-RACE from a human cDNA library (Genbank accession numbers hSK1 U69883; hSK-2 unpublished) or from the Incyte or dbEST databases (Incyte Pharmaceuticals, Inc.; hSK3 AJ251016, hIK AF022797). An optimal Kozak sequence was added to the initiation site and the cDNA was cloned into Bluescript and subsequently the IRES vector pCIN5 for mammalian expression.
# All SK/IK stable cell lines were generated in CHO—K1 using the pCIN5 construct, under selection for resistance to 500 μg/ml geneticin. Five μg of the purified plasmid DNA was used to transfect 5×10^6 CHO—K1 cells (ATCC N° CRL 9618) by electroporation (standard protocol with BIORAD Gene Pulser II). […]
# Standard whole cell patch clamp electrophysiology methods are used to record membrane currents from single cells expressing either SK or IK channels. […] Membrane currents are amplified and recorded with an Axopatch 200B or HEKA EPC-9 patch clamp amplifier coupled to a Pentium microprocessor via an analog-digital interface. […] Pipettes are backfilled with an internal solution containing a 144 mM KCl, 10 mM EGTA, 10 mM HEPES, 1 mM MgCl2 and concentrations of CaCl2 calculated to give free Ca^2+ concentrations ranging from 30 nM to 1 μM. […]
"activation of hIK channels (whole cell currents, timecourse, concentration response curves) (hIK expressed in CHO-K1 cells, FIG. 1(a)-(c))",Compound,"inhibition of hIK current by the IK blocker (charybdotoxin 100 nM, hIK in CHO-K1 cells activated by compound of formula (V), FIG. 1(d))"
activation,NC(=O)/C=C1\CCc2c(F)cc(F)cc21 [compound of formula (V)],
,charybdotoxin,inhibition
